This experiment has as its system MV-4-11 cells. Put plainly: Gene expression microarray analysis (Affymetrix PrimeView) and GSEA. As to conditions: MV-4-11 cells, 48 hours. On the set-up: RFU PODN (11730768_x_at) / Fold change /veh PODN (11730768_x_at) / RFU LINC00158 (11744669_a_at) / Fold change /veh LINC00158 (11744669_a_at) / RFU DUSP10 (11751237_a_at) / Fold change /veh DUSP10 (11751237_a_at) / RFU ID3 (11757404_x_at) / Fold change /veh ID3 (11757404_x_at) / RFU PLEKHG5 (11737974_s_at) / Fold change /veh PLEKHG5 (11737974_s_at) / RFU LRRC4B (11730491_at) / Fold change /veh LRRC4B (11730491_at) / RFU GIMAP4 (11747438_a_at) / Fold change /veh GIMAP4 (11747438_a_at) / RFU KRT8 (11758183_x_at) / Fold change /veh KRT8 (11758183_x_at) / RFU CNN1 (11734310_a_at) / Fold change /veh CNN1 (11734310_a_at) / RFU VPS37D (11726825_at) / Fold change /veh VPS37D (11726825_at) / RFU C10orf10 (11716522_x_at) / Fold change /veh C10orf10 (11716522_x_at) / RFU KIR2DL2 /// KIR2DL4 /// KIR2DL5A /// KIR2DL5B /// KIR2DS1 /// KIR2DS2 /// KIR2DS3 /// KIR2DS4 /// KIR3DL3 /// KIR3DL3 /// KIR3DS1 (11738374_at) / Fold change /veh KIR2DL2 /// KIR2DL4 /// KIR2DL5A /// KIR2DL5B /// KIR2DS1 /// KIR2DS2 /// KIR2DS3 /// KIR2DS4 /// KIR3DL3 /// KIR3DL3 /// KIR3DS1 (11738374_at) / RFU C1QL1 (11718748_at) / Fold change /veh C1QL1 (11718748_at) / RFU TMPRSS4 (11747572_a_at) / Fold change /veh TMPRSS4 (11747572_a_at) / RFU HAMP (11756126_x_at) / Fold change /veh HAMP (11756126_x_at) / RFU RNFT2 (11725882_a_at) / Fold change /veh RNFT2 (11725882_a_at) / RFU NR4A2 (11747474_a_at) / Fold change /veh NR4A2 (11747474_a_at) / RFU ABCC12 (11746883_a_at) / Fold change /veh ABCC12 (11746883_a_at) / RFU TMEM136 (11760407_x_at) / Fold change /veh TMEM136 (11760407_x_at) / RFU CLDN22 /// WWC2 (11732394_at) / Fold change /veh CLDN22 /// WWC2 (11732394_at) / RFU HLA-DPB1 (11760878_x_at) / Fold change /veh HLA-DPB1 (11760878_x_at) / RFU SPINT1 (11716480_a_at) / Fold change /veh SPINT1 (11716480_a_at) / RFU GAP43 (11754022_s_at) / Fold change /veh GAP43 (11754022_s_at) / RFU A4GNT (11735810_at) / Fold change /veh A4GNT (11735810_at) / RFU PRB3 (11715151_x_at) / Fold change /veh PRB3 (11715151_x_at) / RFU TUBB4B (11761932_at) / Fold change /veh TUBB4B (11761932_at) / RFU CAPN14 (11732068_a_at) / Fold change /veh CAPN14 (11732068_a_at) / RFU TMCC2 (11721928_a_at) / Fold change /veh TMCC2 (11721928_a_at) / RFU IRGQ (11745062_a_at) / Fold change /veh IRGQ (11745062_a_at) / RFU FAM174B (11720279_a_at) / Fold change /veh FAM174B (11720279_a_at) / RFU TMPRSS4 (11748680_a_at) / Fold change /veh TMPRSS4 (11748680_a_at) / RFU FAM212B (11763350_a_at) / Fold change /veh FAM212B (11763350_a_at) / RFU PLEKHG5 (11743358_a_at) / Fold change /veh PLEKHG5 (11743358_a_at) / RFU ZSCAN30 (11745921_a_at) / Fold change /veh ZSCAN30 (11745921_a_at) / RFU CMKLR1 (11741424_a_at) / Fold change /veh CMKLR1 (11741424_a_at) / RFU LOC101060620 /// MAPK8IP1 (11723275_at) / Fold change /veh LOC101060620 /// MAPK8IP1 (11723275_at) / RFU SPTSSB (11747773_x_at) / Fold change /veh SPTSSB (11747773_x_at) / RFU PRSS12 (11739890_at) / Fold change /veh PRSS12 (11739890_at) / RFU BIN1 (11741810_x_at) / Fold change /veh BIN1 (11741810_x_at) / RFU WNT11 (11732464_a_at) / Fold change /veh WNT11 (11732464_a_at) / RFU C10orf10 (11716521_a_at) / Fold change /veh C10orf10 (11716521_a_at) / RFU C5orf56 (11738089_at) / Fold change /veh C5orf56 (11738089_at) / RFU CYB561 (11721691_x_at) / Fold change /veh CYB561 (11721691_x_at) / RFU ANKRD19P (11752326_a_at) / Fold change /veh ANKRD19P (11752326_a_at) / RFU OR2T12 /// OR2T33 /// OR2T8 (11738714_s_at) / Fold change /veh OR2T12 /// OR2T33 /// OR2T8 (11738714_s_at) / RFU VCAN (11748164_a_at) / Fold change /veh VCAN (11748164_a_at) / RFU JSRP1 (11732532_at) / Fold change /veh JSRP1 (11732532_at) / RFU KRTAP10-11 (11738290_x_at) / Fold change /veh KRTAP10-11 (11738290_x_at) / RFU MYO3A (11730013_a_at) / Fold change /veh MYO3A (11730013_a_at) / RFU EBF3 (11725865_a_at) / Fold change /veh EBF3 (11725865_a_at) / RFU CAMK2N1 (11719241_x_at) / Fold change /veh CAMK2N1 (11719241_x_at) / RFU C5orf56 (11738088_a_at) / Fold change /veh C5orf56 (11738088_a_at) / RFU OLFML3 (11715873_a_at) / Fold change /veh OLFML3 (11715873_a_at) / RFU LOC100653217 /// NTM (11731650_a_at) / Fold change /veh LOC100653217 /// NTM (11731650_a_at) / RFU MAPK11 (11762145_a_at) / Fold change /veh MAPK11 (11762145_a_at) / RFU FIZ1 (11724087_x_at) / Fold change /veh FIZ1 (11724087_x_at) / RFU OASL (11726364_x_at) / Fold change /veh OASL (11726364_x_at) / RFU SOX15 (11748057_x_at) / Fold change /veh SOX15 (11748057_x_at) / RFU CD79A (11719716_a_at) / Fold change /veh CD79A (11719716_a_at) / RFU HIST1H1D (11736915_at) / Fold change /veh HIST1H1D (11736915_at) / RFU CASKIN2 (11723855_a_at) / Fold change /veh CASKIN2 (11723855_a_at) / RFU LOC730098 (11760151_x_at) / Fold change /veh LOC730098 (11760151_x_at) / RFU OR4N2 (11742367_at) / Fold change /veh OR4N2 (11742367_at) / RFU PRRT2 (11749266_a_at) / Fold change /veh PRRT2 (11749266_a_at) / RFU SNX32 (11753110_a_at) / Fold change /veh SNX32 (11753110_a_at) / RFU CDHR5 (11726645_a_at) / Fold change /veh CDHR5 (11726645_a_at) / RFU RCAN1 (11760418_a_at) / Fold change /veh RCAN1 (11760418_a_at) / RFU FAM167A (11723789_a_at) / Fold change /veh FAM167A (11723789_a_at) / RFU FAM26E (11764081_at) / Fold change /veh FAM26E (11764081_at) / RFU ISYNA1 (11749810_s_at) / Fold change /veh ISYNA1 (11749810_s_at) / RFU ACY1 (11761880_at) / Fold change /veh ACY1 (11761880_at) / RFU 11764098_at / Fold change /veh 11764098_at / RFU SAMD14 (11745864_x_at) / Fold change /veh SAMD14 (11745864_x_at) / RFU NPB (11741838_a_at) / Fold change /veh NPB (11741838_a_at) / RFU TMPRSS6 (11731388_a_at) / Fold change /veh TMPRSS6 (11731388_a_at) / RFU KRTAP10-2 (11738614_at) / Fold change /veh KRTAP10-2 (11738614_at) / RFU ARHGAP8 /// PRR5-ARHGAP8 (11727945_x_at) / Fold change /veh ARHGAP8 /// PRR5-ARHGAP8 (11727945_x_at) / RFU KRTAP5-7 /// NADSYN1 (11734609_at) / Fold change /veh KRTAP5-7 /// NADSYN1 (11734609_at) / RFU RASL12 (11751679_a_at) / Fold change /veh RASL12 (11751679_a_at) / RFU CDKN2B (11736163_a_at) / Fold change /veh CDKN2B (11736163_a_at) / RFU PRF1 (11729649_at) / Fold change /veh PRF1 (11729649_at) / RFU, ZNF638 /// ZNF638-IT1 / Fold change vs veh, ZNF638 /// ZNF638-IT1 / RFU, PANK3 / Fold change vs veh, PANK3 / RFU, SH3YL1 / Fold change vs veh, SH3YL1 / RFU, ZEB2 / Fold change vs veh, ZEB2 / RFU, NRIP1 / Fold change vs veh, NRIP1 / RFU, PTTG1IP / Fold change vs veh, PTTG1IP / RFU, CAPN2 / Fold change vs veh, CAPN2 / RFU, MED14 / Fold change vs veh, MED14 / RFU, SNORA58 / Fold change vs veh, SNORA58 / RFU, C1orf63 / Fold change vs veh, C1orf63 / RFU, LRRFIP1 / Fold change vs veh, LRRFIP1 / RFU, NDUFAF7 / Fold change vs veh, NDUFAF7 / RFU, SLC12A2 / Fold change vs veh, SLC12A2 / RFU, IBTK / Fold change vs veh, IBTK / RFU, ESF1 / Fold change vs veh, ESF1 / Fold change vs veh, TMEM50B / RFU, TAOK1 / Fold change vs veh, TAOK1 / RFU, ACBD3 / Fold change vs veh, ACBD3 / RFU, TMA16 / Fold change vs veh, TMA16 / RFU, RWDD3 / Fold change vs veh, RWDD3 / RFU, BCAT1 / Fold change vs veh, BCAT1 / RFU, EDEM3 / Fold change vs veh, EDEM3 / RFU, TMEM33 / Fold change vs veh, TMEM33 / RFU, WDR75 / Fold change vs veh, WDR75 / RFU, AHCTF1 / Fold change vs veh, AHCTF1 / RFU, TFRC / Fold change vs veh, TFRC / RFU, ZDHHC17 / Fold change vs veh, ZDHHC17 / RFU, NOM1 / Fold change vs veh, NOM1 / RFU, ARL8B / Fold change vs veh, ARL8B / RFU, ZBTB11 / Fold change vs veh, ZBTB11 / RFU, TAMM41 / Fold change vs veh, TAMM41 / RFU, KIAA1704 /// LOC100996395 / Fold change vs veh, KIAA1704 /// LOC100996395 / RFU, ING1 / Fold change vs veh, ING1 / RFU, TRMT61B / Fold change vs veh, TRMT61B / RFU, FUBP3 / Fold change vs veh, FUBP3 / RFU, TP53 / Fold change vs veh, TP53 / RFU, TNKS2 / Fold change vs veh, TNKS2 / RFU, ZFP14 / Fold change vs veh, ZFP14 / RFU, ACTR2 / Fold change vs veh, ACTR2 / RFU, PPP3R1 / Fold change vs veh, PPP3R1 / RFU, PIK3R1 / Fold change vs veh, PIK3R1 / RFU, HNRNPA1 / Fold change vs veh, HNRNPA1 / RFU, RNF170 / Fold change vs veh, RNF170 / RFU, ZNF28 / Fold change vs veh, ZNF28 / RFU, RNGTT / Fold change vs veh, RNGTT / RFU, OGT / Fold change vs veh, OGT / RFU, BRD1 / Fold change vs veh, BRD1 / RFU, MARS / Fold change vs veh, MARS / RFU, ZNF655 / Fold change vs veh, ZNF655 / RFU, FAHD1 / Fold change vs veh, FAHD1 / RFU, BDP1 / Fold change vs veh, BDP1 / RFU, LRRCC1 / Fold change vs veh, LRRCC1 / RFU, ARID1A / Fold change vs veh, ARID1A / RFU, ZNF146 / Fold change vs veh, ZNF146 / RFU, ZNF330 / Fold change vs veh, ZNF330 / RFU, GPN3 / Fold change vs veh, GPN3 / RFU, C9orf123 / Fold change vs veh, C9orf123 / RFU, N4BP2L2 / Fold change vs veh, N4BP2L2 / RFU, ARFIP1 / Fold change vs veh, ARFIP1 / RFU, FAM179B / Fold change vs veh, FAM179B / RFU, BCL10 / Fold change vs veh, BCL10 / RFU, UHRF1BP1L / Fold change vs veh, UHRF1BP1L / RFU, BET1 / Fold change vs veh, BET1 / RFU, CNOT2 / Fold change vs veh, CNOT2 / RFU, ZNF268 / Fold change vs veh, ZNF268 / Fold change vs veh, ZNF507 / RFU, DGCR2 / Fold change vs veh, DGCR2 / RFU, WDSUB1 / Fold change vs veh, WDSUB1 / Fold change vs veh, HSP90B1 /// MIR3652 / RFU, ADSS / Fold change vs veh, ADSS / RFU, GK / Fold change vs veh, GK / RFU, ZNF148 / Fold change vs veh, ZNF148 / RFU, TAF9 / Fold change vs veh, TAF9 / RFU, SLC1A5 / Fold change vs veh, SLC1A5 / RFU, SLMO2 / Fold change vs veh, SLMO2 / RFU, ABCC4 / Fold change vs veh, ABCC4 / RFU, LOC101060439 /// RAP1B / Fold change vs veh, LOC101060439 /// RAP1B / RFU, RFX7 / Fold change vs veh, RFX7 / RFU, GTPBP10 / Fold change vs veh, GTPBP10 / RFU, CNEP1R1 / Fold change vs veh, CNEP1R1 / RFU, BIVM-ERCC5 /// ERCC5 / Fold change vs veh, BIVM-ERCC5 /// ERCC5 / RFU, ILF3 / Fold change vs veh, ILF3 / RFU 11762660_at / Fold change /veh 11762660_at / RFU VCAN (11757783_s_at) / Fold change /veh VCAN (11757783_s_at) / RFU DDX43 (11728927_at) / Fold change /veh DDX43 (11728927_at) / RFU KRT8 (11758188_x_at) / Fold change /veh KRT8 (11758188_x_at) / RFU NKD1 (11759106_at) / Fold change /veh NKD1 (11759106_at) / RFU SRD5A1 (11742802_a_at) / Fold change /veh SRD5A1 (11742802_a_at) / RFU TPSAB1 /// TPSB2 (11721975_s_at) / Fold change /veh TPSAB1 /// TPSB2 (11721975_s_at) / RFU GSTM3 (11746129_a_at) / Fold change /veh GSTM3 (11746129_a_at) / RFU IL23R (11737362_x_at) / Fold change /veh IL23R (11737362_x_at) / RFU TMEM51 (11727254_a_at) / Fold change /veh TMEM51 (11727254_a_at) / RFU PIWIL2 (11732686_x_at) / Fold change /veh PIWIL2 (11732686_x_at) / RFU ORM1 (11744905_x_at) / Fold change /veh ORM1 (11744905_x_at) / RFU CCDC152 (11743942_at) / Fold change /veh CCDC152 (11743942_at) / RFU ECM1 (11717891_a_at) / Fold change /veh ECM1 (11717891_a_at) / RFU IL23R (11748794_a_at) / Fold change /veh IL23R (11748794_a_at) / RFU TNFAIP8L3 (11732012_x_at) / Fold change /veh TNFAIP8L3 (11732012_x_at) / RFU MBOAT4 (11741988_at) / Fold change /veh MBOAT4 (11741988_at) / RFU 11764193_at / Fold change /veh 11764193_at / RFU TMEM53 (11763286_at) / Fold change /veh TMEM53 (11763286_at) / RFU MAGEB2 (11727129_at) / Fold change /veh MAGEB2 (11727129_at) / RFU TMEM200A (11744735_a_at) / Fold change /veh TMEM200A (11744735_a_at) / RFU CCDC152 (11751479_a_at) / Fold change /veh CCDC152 (11751479_a_at) / RFU FAM211A (11726209_a_at) / Fold change /veh FAM211A (11726209_a_at) / RFU RGS16 (11746705_a_at) / Fold change /veh RGS16 (11746705_a_at) / RFU VCAN (11755009_s_at) / Fold change /veh VCAN (11755009_s_at) / RFU RHOB (11743442_s_at) / Fold change /veh RHOB (11743442_s_at) / RFU RGS16 (11720943_a_at) / Fold change /veh RGS16 (11720943_a_at) / RFU RGS16 (11720944_at) / Fold change /veh RGS16 (11720944_at) / RFU, VPS4B / Fold change vs veh, VPS4B / RFU, CREB1 / Fold change vs veh, CREB1 / RFU, DNAJC13 / Fold change vs veh, DNAJC13 / RFU, GNAQ / Fold change vs veh, GNAQ / RFU, CDK5R1 / Fold change vs veh, CDK5R1 / RFU, ZRANB3 / Fold change vs veh, ZRANB3 / RFU, CUL4A / Fold change vs veh, CUL4A / RFU, CCNY / Fold change vs veh, CCNY / RFU, UFL1 / Fold change vs veh, UFL1 / RFU, COG3 / Fold change vs veh, COG3 / RFU, DIAPH2 / Fold change vs veh, DIAPH2 / RFU, SKA2 / Fold change vs veh, SKA2 / RFU, AFF3 / Fold change vs veh, AFF3 / RFU, LMF1 / Fold change vs veh, LMF1 / RFU, IPO11 / Fold change vs veh, IPO11 / RFU, DFFB / Fold change vs veh, DFFB / RFU, FOXP1 / Fold change vs veh, FOXP1 / RFU, CARD8 / Fold change vs veh, CARD8 / RFU, STRN3 / Fold change vs veh, STRN3 / RFU, ADK / Fold change vs veh, ADK / RFU, RASSF2 / Fold change vs veh, RASSF2 / RFU, WIPF1 / Fold change vs veh, WIPF1 / RFU, LARP1B / Fold change vs veh, LARP1B / RFU, RASA1 / Fold change vs veh, RASA1 / RFU, RB1 / Fold change vs veh, RB1 / RFU, PPFIA1 / Fold change vs veh, PPFIA1 / RFU, MAT2A / Fold change vs veh, MAT2A / RFU, CCT5 / Fold change vs veh, CCT5 / RFU, WDR92 / Fold change vs veh, WDR92 / RFU, CUX1 / Fold change vs veh, CUX1 / RFU, TTC7A / Fold change vs veh, TTC7A / RFU, TMEM135 / Fold change vs veh, TMEM135 / RFU, DEPTOR / Fold change vs veh, DEPTOR / RFU, CPM / Fold change vs veh, CPM / RFU, DNAJB6 / Fold change vs veh, DNAJB6 / RFU, CACNA2D3 / Fold change vs veh, CACNA2D3 / RFU, DTX4 / Fold change vs veh, DTX4 / RFU, TFCP2 / Fold change vs veh, TFCP2 / RFU, GMCL1 /// GMCL1P1 / Fold change vs veh, GMCL1 /// GMCL1P1 / RFU, AEBP2 / Fold change vs veh, AEBP2 / RFU, SNHG1 /// SNORD22 /// SNORD25 /// SNORD26 /// SNORD27 /// SNORD28 /// SNORD29 /// SNORD31 / Fold change vs veh, SNHG1 /// SNORD22 /// SNORD25 /// SNORD26 /// SNORD27 /// SNORD28 /// SNORD29 /// SNORD31 / Fold change (Aza/veh), C12orf56 (ProbeSet 11735607_a_at) / Fold change (ACY-1035/veh), C12orf56 (ProbeSet 11735607_a_at) / Fold change (Aza/veh), FGFR1OP (ProbeSet 11751329_s_at) / Fold change (ACY-1035/veh), FGFR1OP (ProbeSet 11751329_s_at) / Fold change (Aza/veh), VPS36 (ProbeSet 11739960_a_at) / Fold change (ACY-1035/veh), VPS36 (ProbeSet 11739960_a_at) / RFU SYPL1 (11715823_x_at) / Fold change /veh SYPL1 (11715823_x_at) / RFU IGFBP7 (11715501_s_at) / Fold change /veh IGFBP7 (11715501_s_at) / RFU REEP3 (11722064_at) / Fold change /veh REEP3 (11722064_at) / RFU IGLL1 (11728026_x_at) / Fold change /veh IGLL1 (11728026_x_at): dose or concentration left out as unconfirmed. In kind it is cell-based, human.

Regarding `Nc1ccc(-c2cccs2)cc1NC(=O)c1ccc2c(c1)cc(C1CC1)n2CCN1CCOCC1` [ACY-1035], the “Fold change /veh KRT8 (11758188_x_at)” value was 1.06.

Values taken from publication PMC5218480 (PLoS ONE, 2017).
